Marks after values point to notes of the source that are not given here.
Key:
[1] = Maximum tolerated dose (MTD) in immune-deficient mice; assay type: in vivo; conditions: once weekly, intravenous
From the text: (§1) Animals were divided into 6 treatment groups (12 animals each) prior to inoculation of tumors in all experiments.

MDA453 xenografts [2] = test: MDA453 human breast cancer xenograft, cisplatin study 8; assay type: in vivo, mice
Description: (§2) Two separate HER2-overexpressing human breast cancer xenograft models were utilized: BT474 and MDA453. The BT474 or MDA453 tumors were inoculated from cultured cells in exponential growth. Cells were trypsinized, collected and washed in media. Cells were counted by hemacytometer, spun down and resuspended in media at 50 million cells per milliliter of media (5 million cells per 0.1 ml injection volume). Resuspended cells were chilled, then mixed in an equal volume of Matrigel. Cells (0.2 ml, continuously mixed) were drawn into individual, chilled syringes for subcutaneous injection into the dorsum of each animal.
(§3) Immune-deficient female mice (NCR.nu/nu, Taconic Farms, Germantown, N.Y.) were obtained from the vendor and acclimated for at least 7 days prior to initiation of experiments. Animals were housed in microisolator caging (Thoren Caging, Hazelton, Pa.) with ad lib gamma irradiated rodent food and autoclaved, acidified water. Lights were set for 12:12 light: dark cycle. All animals received a 0.72 mg estradiol 17β sustained release pellet (Innovative Research of America, Sarasota, Fla.) by subcutaneous injection 24 hours prior to tumor inoculation. Animals were randomized into treatment groups prior to inoculation of tumors.
Animals were weighed prior to inoculation of tumors and at least weekly thereafter. Tumors were measured twice weekly throughout the experiment, beginning 6-8 days after tumor inoculation. Tumor measurements were made by digital caliper in 3 dimensions and the volume recorded as one half the product of these measurements. […]
Tumor volumes, measured repeatedly throughout experiments, were used for analysis as correlated information. […] Growth rates (slope) for each treatment group within each experiment were calculated and compared in linear regression. […]
(§4) Tumor size at specific times after treatment was compared between treated and control groups. Tumor growth inhibition was reported as % T/C which is the tumor size of each treated group divided by the control group, expressed as a percentage.

BT474 xenografts [3] = test: BT474 human breast cancer xenograft, cisplatin studies 6-7; assay type: in vivo, mice
Description: In Study No. 6, mice were inoculated with BT474 cells.
The animals were dosed as described in Example 2, with the saline and chemotherapeutic agent administered intravenously once per week and the biological agent administered intraperitoneally twice per week.
as §2, §3
(§5) Animals were weighed prior to inoculation of tumors and at least weekly thereafter. Tumors were measured twice weekly throughout the experiment, beginning 6-8 days after tumor inoculation. Tumor measurements were made by digital caliper in 3 dimensions and the volume recorded as one half the product of these measurements. Any animal observed to have 15% or greater weight loss from the initial starting weight was immediately euthanized. Any animal observed to have greater than 4,000 mm^3 tumor volume was immediately euthanized.
as §1
All treatments were administered for 3 weekly cycles. Treatment was initiated when average tumor volume was 75 mm^3 (approximately 6-10 days after inoculation).
Tumor volumes, measured repeatedly throughout experiments, were used for analysis as correlated information. Since tumor growth over time after treatment was of interest, repeated measurement analysis for each treatment group was performed. Growth rates (slope) for each treatment group within each experiment were calculated and compared in linear regression. If the growth rate was positive for a certain treatment, tumors were still growing even after receiving the drug; if the growth rate is negative, tumors began to shrink after receiving the drug; if the growth rate is 0, tumors stop growing after receiving the drug. A p-value of 0.05 or less is considered significant.
as §4

A431 tumor = A431 tumor xenograft implanted subcutaneously in nude mice, tumor volume; assay type: in vivo
From the text: In studies performed in support of the invention, a xenograft of the A431 tumor was implanted subcutaneously in nude mice. […] The liposomes included a vesicle-forming lipid derivatized with the hydrophilic polymer polyethyleneglycol.

MDA453 xenografts [4] = test: MDA453 human breast cancer xenograft, doxorubicin study 4; assay type: in vivo, mice
Description: (§6) 1. BT474 and MDA453 Cells: The BT474 and MDA453 tumors were each inoculated from cultured cells in exponential growth. Cells were trypsinized, collected and washed in media. Cells were counted by hemacytometer, spun down and resuspended in media at 50 million cells per milliliter of media. Resuspended cells were chilled, then mixed with an equal volume of Matrigel. Cells (5 million cells per 0.2 ml injection volume, continuously mixed) were drawn into individual, chilled syringes for subcutaneous injection into the dorsum of each animal.
Immune deficient mice were used in all experiments. Study numbers 1, 2, 3 and 4 were conducted in homozygous nude female mice. […]
(§7) Animals were weighed prior to inoculation of tumors and at least weekly thereafter. Tumors were measured twice weekly throughout the experiment, beginning 6-8 days after tumor inoculation. Tumor measurements were made by digital caliper in 3 dimensions and the volume recorded as one-half the product of these measurements. […]
(§8) Tumor volumes, measured repeatedly throughout the experiments, were used for analysis as correlated information. […] All tumor volumes were log transformed, with z=log10(y+1) where y is the calculated tumor volume, thus when y=0, z is meaningful and z=0. Log growth rates for transformed values, z, for each treatment group within each experiment were calculated and compared in linear regression. […]

BT474 xenografts [5] = test: BT474 human breast cancer xenograft, doxorubicin studies 1-3; assay type: in vivo, mice
Description: In study numbers 1, 2 and 3 immune-deficient mice were inoculated by subcutaneous injection into the dorsum with 5 million BT474 cells in 0.1 mL added to an equal volume of Matrigel for an inoculation volume of 0.2 mL. The inoculated mice were divided into six treatment groups of 12 mice each, prior to inoculation. Treatment was initiated when the average tumor volume was 100 mm^3, which occurred approximately 7-10 days after inoculation.
Saline, doxorubicin and liposome-entrapped doxorubicin were administered by intravenous injection for three treatments. […] The animals were monitored daily and the tumors were measured in three dimensions twice weekly over the study period.
as §6
Immune deficient mice were used in all experiments. Study numbers 1, 2, 3 and 4 were conducted in homozygous nude female mice. Study number 5 was conducted in homozygous ICR scid female mice. All mice were obtained at the age of four weeks and acclimated for a minimum of 1 week prior to tumor inoculation. All mice were ear tagged for individual identification during acclimation. For each study, 75 mice were inoculated with tumors to supply 72 study animals at treatment.
as §5, with “one-half” for “one half”, “euthanized by inhalation of 100% carbon dioxide.” for “euthanized.”
Animals were divided into 6 treatment groups prior to inoculation of tumors. […] Treatment was initiated when average tumor volume was 100 mm^3 (approximately 7-10 days after inoculation).
Tumor volumes, measured repeatedly throughout the experiments, were used for analysis as correlated information. Since tumor growth over time after treatment was of interest, repeated measurement analysis for each treatment group was performed. All tumor volumes were log transformed, with z=log10(y+1) where y is the calculated tumor volume, thus when y=0, z is meaningful and z=0. Log growth rates for transformed values, z, for each treatment group within each experiment were calculated and compared in linear regression. If the log growth rate is positive for a certain treatment, this means that the tumors still grow even after receiving the drug; if the log growth rate is negative, this means that the tumors begin to shrink after receiving the drug; if the log growth rate is 0, then the tumors stop growing after receiving the drug. A p-value of 0.05 or less is statically significant.

B585 xenografts = test: B585 primary human breast cancer xenograft, doxorubicin study 5; assay type: in vivo, mice; conditions: doxorubicin HCl or liposome-entrapped 4 mg/kg iv once/week x3, anti-HER2 antibody 3 mg/kg ip twice/week x6
Description: 2. […] Resuspended cells were chilled, then mixed with an equal volume of Matrigel. Cells (5 million cells per 0.2 ml injection volume, continuously mixed) were drawn into individual, chilled syringes for subcutaneous injection into the dorsum of each animal.
Immune deficient mice were used in all experiments. Study numbers 1, 2, 3 and 4 were conducted in homozygous nude female mice. Study number 5 was conducted in homozygous ICR scid female mice. All mice were obtained at the age of four weeks and acclimated for a minimum of 1 week prior to tumor inoculation. All mice were ear tagged for individual identification during acclimation. […]
as §7, §8

## N.N.[Cl][Pt][Cl] [Cisplatin, cisplatin]
[1]
  MTD: 6 mg/kg
MDA453 xenografts [2]; Day 33, MDA453, cisplatin 4 mg/kg, antibody 1 mg/kg, control saline
  Size of treated tumors as a function of size of control tumors, % T/C, Study No. 8: 56.1 % T/C
MDA453 xenografts [2]; Study No. 8, MDA453, cisplatin 4 mg/kg, antibody 1 mg/kg
  tumor volume over treatment period (FIGS. 9A-9B), in words: continual tumor growth
MDA453 xenografts [2]; cisplatin or liposome-entrapped cisplatin 4 mg/kg iv once/week x3, anti-HER2 antibody 1 mg/kg ip twice/week x6
  Growth rate of tumors (slope), Study No. 8 MDA453: 19.84^e
BT474 xenografts [3]; Day 44, BT474, cisplatin 6 mg/kg, antibody 3 mg/kg, control saline
  Size of treated tumors as a function of size of control tumors, % T/C, Study No. 6: 10.0 % T/C
BT474 xenografts [3]; Day 49, BT474, cisplatin 4 mg/kg, antibody 0.5 mg/kg, control saline
  Size of treated tumors as a function of size of control tumors, % T/C, Study No. 7: 41.7 % T/C
BT474 xenografts [3]; Study No. 6, BT474, cisplatin 6 mg/kg, antibody 3 mg/kg
  tumor volume over treatment period (FIGS. 7A-7B), in words: fared considerably better than the untreated animals
BT474 xenografts [3]; Study No. 7, BT474, cisplatin 4 mg/kg, antibody 0.5 mg/kg
  tumor volume over treatment period (FIG. 8), in words: continual tumor growth
BT474 xenografts [3]; cisplatin or liposome-entrapped cisplatin 4 mg/kg iv once/week x3, anti-HER2 antibody 0.5 mg/kg ip twice/week x6
  Growth rate of tumors (slope), Study No. 7 BT474: 14.35^b
BT474 xenografts [3]; cisplatin or liposome-entrapped cisplatin 6 mg/kg iv once/week x3, anti-HER2 antibody 3 mg/kg ip twice/week x6
  Growth rate of tumors (slope), Study No. 6 BT474: 1.02

## COc1cccc2c1C(=O)c1c(O)c3c(c(O)c1C2=O)C[C@@](O)(C(=O)CO)C[C@@H]3O[C@H]1C[C@H](N)[C@H](O)[C@H](C)O1 [doxorubicin]
A431 tumor; 40 days following tumor implantation
  Tumor Volume at 40 days: 1700 mm^3
A431 tumor; 60 days following tumor implantation
  Tumor Volume at 60 days: 3650 mm^3
A431 tumor; treatment from day 6
  tumor volume as a function of time (FIG. 1), in words: still an increase in tumor size but to a lesser extent
MDA453 xenografts [4]; MDA453, doxorubicin HCl or liposome-entrapped 5 mg/kg iv once/week x3, anti-HER2 antibody 5 mg/kg ip twice/week x6
  Log Growth Rate, Study No. 4: 0.020^a
MDA453 xenografts [4]; Study No. 4, MDA453, doxorubicin 5 mg/kg, liposomal 5 mg/kg, antibody 5 mg/kg
  tumor volume over treatment period (FIGS. 5A-5B), in words: continual increase in tumor volume
BT474 xenografts [5]; BT474, doxorubicin HCl 4 mg/kg or liposome-entrapped 3 mg/kg iv once/week x3, anti-HER2 antibody 10 mg/kg ip twice/week x6
  Log Growth Rate, Study No. 1: 0.027
BT474 xenografts [5]; BT474, doxorubicin HCl or liposome-entrapped 3 mg/kg iv once/week x3, anti-HER2 antibody 1 mg/kg ip twice/week x6
  Log Growth Rate, Study No. 3: 0.011^a
BT474 xenografts [5]; BT474, doxorubicin HCl or liposome-entrapped 5 mg/kg iv once/week x3, anti-HER2 antibody 3 mg/kg ip twice/week x6
  Log Growth Rate, Study No. 2: 0.010^a
BT474 xenografts [5]; Study No. 1, BT474, doxorubicin 4 mg/kg, liposomal 3 mg/kg, antibody 10 mg/kg
  tumor volume over treatment period (FIGS. 2A-2B), in words: continual tumor growth
BT474 xenografts [5]; Study No. 2, BT474, doxorubicin 5 mg/kg, liposomal 5 mg/kg, antibody 3 mg/kg
  tumor volume over treatment period (FIGS. 3A-3B), in words: reduced tumor volume relative to the control animals
BT474 xenografts [5]; Study No. 3, BT474, doxorubicin 3 mg/kg, liposomal 3 mg/kg, antibody 1 mg/kg
  tumor volume over treatment period (FIGS. 4A-4B), in words: fared better than the untreated animals
B585 xenografts
  Log Growth Rate, Study No. 5: 0.052

From patent US20050084524A1, “Method for potentiating activity of a chemotherapeutic drug” (ALZA Corporation, priority 1998, published 2005)
